Measurements from US7674813B2, “Heterocyclic sulfonamide inhibitors of beta amyloid production containing an azole” (Wyeth, priority 2004, dated 2010).

Key:
[1] = tested on: beta amyloid protein; settings: in vivo after oral administration; cited from earlier work
[2] = tested on: amyloid precursor protein (APP) proteolysis; assay: Repressor Release Assay (RRA); type: cell-based; design: key to RRA data (footnote symbols): **: Inactive due to toxicity; however, this compound, at 3-4 μM, reduces Aβ levels by 50% in CHO cells transfected with human APP695 as measured by ELISA without exhibiting toxicity.; ***: Inactive; however, this compound, at 1-4 μM, reduces Aβ levels by 50% in CHO cells transfected with human APP695 as measured by ELISA without exhibiting toxicity; settings: for fold induction at 20 µg/mL: Cricetulus griseus, CHO-K1, all compounds tested at 20 μg/mL, luciferase activity over diluent control, read-out: RRA data (Fold increase of APPI)
Experimental: The beta amyloid inhibitory activity of many of the compounds of the present invention has been determined using the Repressor Release Assay (RRA). See, Table 3 below. A compound is considered active in RRA if it leads to at least a 1.5 fold increase in luciferase activity at 20 μg/mL and is non-toxic.
The compound is considered active in RRA if it leads to at least a 1.5 fold increase in APPI as measured by an increase in luciferase activity at 20 μg/mL and is non-toxic. Shuey, D. J., Sheiffele, P., Jones, D., Cockett, M. I., and Quinet, E. M. (1999) Repressor release: a useful tool for monitoring amyloid precursor protein (APP) proteolysis in mammalian cells. Society for Neuroscience Abstracts, Vol. 25, 29th Annual Meeting of Society for Neuroscience, Miami Beach, Fla., Oct. 23-28, 1999.
CHO—K1 cells are cultured in whole DMEM media (DMEM—High Glucose with 10% fetal bovine serum, 1% Non-essential Amino Acids, and 1% Penicillin-Streptomycin) at 37° C. with 5% CO2. Two million cells are plated into 10-cm dishes 24 hrs prior to transfection.
Transient transfections are completed as recommended by Gibco BRL using their Lipofectamine Plus system. First, 6 μg of pRSVO-luc and 6 μg of APP-lacI construct DNA are added to 460 μL Opti-Mem transfection media and incubated with 30 μL Plus reagent for 15 minutes. Then, a lipid mixture of 40 μL Lipofectamine reagent and 460 μL Opti-Mem transfection media is incubated with the DNA-Plus reagent mixture for 15 minutes. During the DNA-lipid incubation, the CHO—K1 cells are washed once and covered in 5.0 mL DMEM media without Penicillin-Streptomycin. The DNA-lipid preparation is then layered onto these cells and incubated at 37° C. overnight.
One and one half million transfected cells per well (100 μL total volume) are plated into sterile, opaque Packard 96-well Cultur-Plates in clear DMEM whole media (DMEM—without phenol red) and incubated at 37° C. with 5% CO2 for 3-5 hours.
Compounds are diluted using two different protocols; one protocol is used for compounds supplied neat (weighed powder in vial) and the other protocol is used for compounds supplied in solution (20 mM in DMSO in 96-well plates). For both protocols, 25 mM Hepes and 25 mM Hepes/1% DMSO are prepared fresh to be used as diluent. The Hepes/DMSO is used as the diluent control on all experimental plates.
The following Table 1 depicts the steps for compound dilution (the last step is the addition of compound to cells/media in tissue culture plate):
Because some compounds arrive in 96-well format at 20 mM, the following Table 2 represents the protocol for their dilution (an average molecular weight of these compounds was used to calculate these dilutions and as above, the last step is the addition of compound to cells/media in tissue culture plate):
Once compounds are diluted, they are applied in duplicate on cells in tissue culture plates (prepared above). Cells are incubated with compound at 37° C. with 5% CO2 for an additional 36-48 hours.
Luciferase assays (LucLite reagent, Packard) are performed and are read on a Packard TopCount instrument. Media is removed from each 96-well plate and replaced with 100 μL PBS per well (with Mg^2+ and Ca^2+). An equal volume (100 μL) of the LucLite lysis/substrate buffer is added to each well and the plates are sealed and mixed in the dark on a rotary shaker for 15-30 minutes at room temperature. Luciferase readings are then taken on the TopCount instrument. Measurements are expressed as relative light units (RLU) and are calculated and analyzed in MS Excel as follows:
Fold Increase: amount of luciferase activity (measured in relative light units) over diluent control.
SEM: standard error of the mean for fold increase.
Activity: A compound is considered active if it results in at least a 1.5 fold increase in luciferase activity at 20 μg/mL.
Toxicity: determined by loss of signal (<0.75 fold increase).

[3] = tested on: beta amyloid 40; assay: Aβ40/42 ELISA Assay (Aβ40); type: cell-based; settings: Cricetulus griseus; CHO cells carrying the APP-REP-NL plasmid, 22 hours, sandwich ELISA
Experimental: (§1) Compounds are diluted from DMSO stocks to 2 μM and below in a cell culture medium. Compounds are then applied to CHO cells carrying the APP-REP-NL plasmid [Sudhir et. al, J. Biolog. Chem. 267:25602-25608 (1992)] for a period of 22 hours. After the conditioning period, medium is collected, diluted in assay buffer containing protein, and samples, controls, and synthetic peptide standards are incubated on a prepared ELISA plate. Using a sandwich ELISA with antibodies specifically directed against the carboxyl terminus of beta amyloid 40 or 42 (analogous to the method reported by Haugabook et al., J. Neurosci. Methods 108:171-179 (2001) but using goat anti-mouse IgG1 (source: Southern Biotech) as the anchor, 6E10 as the capture antibody (Source: SENETEK), rabbit antiAβ40 and antiAβ42 (source: QCB) and APL-donkey anti-rabbit IgG (H+L, source: Southern Biotech) as the detection antibody), the effect of the compound treatment on the cellular production of extracellular beta amyloid is quantified. Cells treated with compound are subsequently incubated in cell culture medium containing MTS-formazan. After a short incubation period, MTS/medium containing plates are read in a spectrophotometer to determine the extent to which compound toxicity affected the cell's metabolism and ability to synthesize beta amyloid.
(§2) A. Test Samples: compound samples are supplied as 20 mM stock solutions in a 100% DMSO solution.
(§3) B. APP-REP-NL cells: Qualified cell lines are carried from week to week using 1:100 dilutions and are cultured in DMEM supplemented with 1× antibiotic/antimycotic, 200 ug/ml of G418 antibiotic, and 10% certified fetal calf serum. Cells are also banked in liquid nitrogen. Periodically, beta amyloid production is assessed, and cells are either kept in culture or replaced with progenitors at full expression.
(§4) C. Antibodies: From certified lots that have already been qualified in this assay. Antibodies are stored in small frozen aliquots at −80° C. that are thawed and used.
(§5) A compound is considered active if it has an EC50 for Aβ40 reduction of <100 μM and no toxicity at doses in the vicinity of the EC50.

[4] = tested on: beta amyloid 42; assay: Aβ40/42 ELISA Assay (Aβ42); type: cell-based; settings: CHO cells carrying the APP-REP-NL plasmid, 22 hours, sandwich ELISA; for EC50: Cricetulus griseus
Experimental: as §1, §2, §3, §4, §5

| SMILES | beta amyloid protein levels in mice brains [1] | fold increase in luciferase activity ([2]; at 20 μg/mL) | fold induction at 20 µg/mL ([2]; transfected CHO-K1 cells) | melting point | RRA data (footnote symbols) ([2]; tested at 20 μg/mL, transfected CHO-K1 cells) | EC50 [3] | EC50 [4] | Effect on Aβ42 production [4] |
| --- | --- | --- | --- | --- | --- | --- | --- | --- |
| C[C@H](NC(=O)Cc1cc(F)cc(F)c1)C(=O)N[C@H](C(=O)OC(C)(C)C)c1ccccc1 [DAPT, reference compound] | reduce beta amyloid protein levels | 18.5-28.1 fold increase | – | – | – | – | – | – |
| CCC(CC)C(NS(=O)(=O)c1ccc(Cl)s1)c1ccnn1Cc1ccc(O)cc1 (stereo not drawn) [Example 8, 5-Chloro-N-{2-ethyl-1-[1-(4-hydroxybenzyl)-1H-pyrazol-5-yl]butyl}thiophene-2-sulfonamide] | – | – | 4.5 | 90 to 92 °C | – | – | – | – |
| CCC(CC)C(NS(=O)(=O)c1ccc(Cl)s1)c1ccnn1S(=O)(=O)c1ccc(C)cc1 (stereo not drawn) [Example 9, 5-Chloro-N-(2-ethyl-1-{1-[(4-methylphenyl)sulfonyl]-1H-pyrazol-5-yl}butyl)thiophene-2-sulfonamide] | – | – | – | 146 to 148 °C | *** | 3 µM | 4.5 µM | – |
| CCC(CC)C(NS(=O)(=O)c1ccc(Cl)s1)c1ncnn1Cc1ccc(OC)cc1 (stereo not drawn) [Example 21, 5-Chloro-N-{2-ethyl-1-[1-(4-methoxybenzyl)-1H-1,2,4-triazol-5-yl]butyl}thiophene-2-sulfonamide] | – | – | 10.8 | 136 to 137 °C | – | 1.4 µM | 3.1 µM | – |
| CC(C)C(NS(=O)(=O)c1ccc(Cl)s1)c1ncnn1Cc1ccccc1 (stereo not drawn) [Example 23, N-[1-(1-Benzyl-1H-1,2,4-triazol-5-yl)-2-methylpropyl]-5-chlorothiophene-2-sulfonamide] | – | – | 1.8 | 138 to 139 °C | – | 5.2 µM | 13.2 µM | – |
| Cc1ccc(Cn2ncnc2C(NS(=O)(=O)c2ccc(Cl)s2)C(C)C)cc1 (stereo not drawn) [Example 24, 5-Chloro-N-{2-methyl-1-[1-(4-methylbenzyl)-1H-1,2,4-triazol-5-yl]propyl}thiophene-2-sulfonamide] | – | – | 1.8 | 124 to 125 °C | – | 6 µM | 11 µM | – |
| CC(NS(=O)(=O)c1ccc(Cl)s1)c1ncnn1Cc1ccccc1 (stereo not drawn) [Example 25, N-[1-(1-Benzyl-1H-1,2,4-triazol-5-yl)ethyl]-5-chlorothiophene-2-sulfonamide] | – | – | 6.6 | 123 to 124 °C | – | 42.5 µM | 90 µM | – |
| Cc1ccc(Cn2ncnc2C(C)NS(=O)(=O)c2ccc(Cl)s2)cc1 (stereo not drawn) [Example 26, 5-Chloro-N-{1-[1-(4-methylbenzyl)-1H-1,2,4-triazol-5-yl]ethyl}thiophene-2-sulfonamide] | – | – | 5.6 | 116 to 117 °C | – | 9.6 µM | 15.5 µM | – |
| CCC(CC)C(NS(=O)(=O)c1ccc(Cl)s1)c1ncnn1Cc1ccc(C)cc1 (stereo not drawn) [Example 27, 5-Chloro-N-{2-ethyl-1-[1-(4-methylbenzyl)-1H-1,2,4-triazol-5-yl]butyl}thiophene-2-sulfonamide] | – | – | 13 | 103 to 104 °C | – | 2.7 µM | 6.2 µM | – |
| CC(C)C(NS(=O)(=O)c1ccc(Cl)s1)c1cccn1Cc1ccccc1 (stereo not drawn) [Example 31, N-[1-(1-Benzyl-1H-pyrrol-2-yl)-2-methylpropyl]-5-chlorothiophene-2-sulfonamide] | – | – | 5.3 | 102 to 103 °C | – | 26.7 µM | – | increase |
| CCC(CC)C(c1ccnn1-c1ccccc1)N(C)S(=O)(=O)c1ccc(Cl)s1 (stereo not drawn) [Example 46, 5-Chloro-N-[2-ethyl-1-(1-phenyl-1H-pyrazol-5-yl)butyl]-N-methylthiophene-2-sulfonamide] | – | – | – | 125.8 to 127.6 °C | – | 70.1 µM | – | increase |
| CCC(CC)C(c1ccnn1-c1ccccc1)N(C)S(=O)(=O)c1ccc(Cl)c(Cl)c1 (stereo not drawn) [Example 47, 3,4-Dichloro-N-[2-ethyl-1-(1-phenyl-1H-pyrazol-5-yl)butyl]-N-methylbenzenesulfonamide] | – | – | – | 102.1 to 104.1 °C | – | 61.2 µM | – | increase |
| CCC(CC)C(c1ccnn1-c1ccccc1)N(C)S(=O)(=O)c1ccc(Br)s1 (stereo not drawn) [Example 48, 5-Bromo-N-[2-ethyl-1-(1-phenyl-1H-pyrazol-5-yl)butyl]-N-methylthiophene-2-sulfonamide] | – | – | – | 115.6 to 118 °C | – | 65.1 µM | – | increase |
